Reference: patent US5389627A, “Cephem compounds” (priority 1993, dated 1995)
In brackets after ≈: the same amount, converted by molar mass.

Experiments:
Test in all cases: In vitro antibacterial activity, minimum inhibitory concentration
Format in all cases: cell-based
[1] = system: S.marcescens ATCC27117; settings: Serratia marcescens; S.marcescens ATCC27117; read-out: Minimum Inhibitory Concentration (MIC)
Text: (§1) As reference compounds, Cefotaxime (CTX), Ceftazidime (CAZ) and Cefpirome (CPR) were employed.

[2] = system: K.pneumoniae ATCC10031; settings: Klebsiella pneumoniae; K.pneumoniae ATCC10031; read-out: Minimum Inhibitory Concentration (MIC)
Text: as §1

[3] = system: E.coli C4002; settings: Escherichia coli; E.coli C4002; read-out: Minimum Inhibitory Concentration (MIC)
Text: as §1

[4] = system: S.marcescens C1052; settings: Serratia marcescens; S.marcescens C1052; read-out: Minimum Inhibitory Concentration (MIC)
Text: as §1

[5] = system: K.pneumoniae C1040; settings: Klebsiella pneumoniae; K.pneumoniae C1040; read-out: Minimum Inhibitory Concentration (MIC)
Text: as §1

[6] = system: P.aeruginosa C2027; settings: Pseudomonas aeruginosa; P.aeruginosa C2027; read-out: Minimum Inhibitory Concentration (MIC)
Text: as §1

[7] = system: P.rettgeri ATCC9919; settings: Providencia rettgeri; P.rettgeri ATCC9919; read-out: Minimum Inhibitory Concentration (MIC)
Text: as §1

[8] = system: S.aureus Smith; settings: Staphylococcus aureus; S.aureus Smith; read-out: Minimum Inhibitory Concentration (MIC)
Text: as §1

[9] = system: E.coli ATCC10536; settings: Escherichia coli; E.coli ATCC10536; read-out: Minimum Inhibitory Concentration (MIC)
Text: as §1

[10] = system: E.cloacae C4009; settings: Enterobacter cloacae; E.cloacae C4009; read-out: Minimum Inhibitory Concentration (MIC)
Text: as §1

[11] = system: S.aureus ATCC29213; settings: Staphylococcus aureus; S.aureus ATCC29213; read-out: Minimum Inhibitory Concentration (MIC)
Text: as §1

[12] = system: P.aeruginosa ATCC27853; settings: Pseudomonas aeruginosa; P.aeruginosa ATCC27853; read-out: Minimum Inhibitory Concentration (MIC)
Text: as §1

[13] = system: E.cloacae C4008; settings: Enterobacter cloacae; E.cloacae C4008; read-out: Minimum Inhibitory Concentration (MIC)
Text: as §1

[14] = system: S.typhimurium C4045; settings: Salmonella enterica; S.typhimurium C4045; read-out: Minimum Inhibitory Concentration (MIC)
Text: as §1

[15] = system: MRSA C2208; settings: Staphylococcus aureus; MRSA C2208; read-out: Minimum Inhibitory Concentration (MIC)
Text: as §1

[16] = system: P.aeruginosa ATCC10145; settings: Pseudomonas aeruginosa; P.aeruginosa ATCC10145; read-out: Minimum Inhibitory Concentration (MIC)
Text: as §1

[17] = system: S.Faecalis ATCC29212; settings: Enterococcus faecalis
Text: as §1

[18] = system: S.aureus C4036; settings: Staphylococcus aureus; S.aureus C4036; read-out: Minimum Inhibitory Concentration (MIC)
Text: as §1

[19] = system: E.coli ATCC25922; settings: Escherichia coli; E.coli ATCC25922; read-out: Minimum Inhibitory Concentration (MIC)
Text: as §1

[20] = system: K.oxytoca C4022; settings: Klebsiella oxytoca; K.oxytoca C4022; read-out: Minimum Inhibitory Concentration (MIC)
Text: as §1

[21] = system: P.mirabilis ATCC25933; settings: Proteus mirabilis; P.mirabilis ATCC25933; read-out: Minimum Inhibitory Concentration (MIC)
Text: as §1

[22] = system: P.aeruginosa C4070; settings: Pseudomonas aeruginosa; P.aeruginosa C4070; read-out: Minimum Inhibitory Concentration (MIC)
Text: as §1

[23] = system: S.epidermidis ATCC12228; settings: Staphylococcus epidermidis; S.epidermidis ATCC12228; read-out: Minimum Inhibitory Concentration (MIC)
Text: as §1

[24] = system: S.pyogenes ATCC 8668; settings: Streptococcus pyogenes, ATCC8668; S.pyogenes ATCC 8668; read-out: Minimum Inhibitory Concentration (MIC)
Text: as §1

[25] = system: S.pyogenes C4003; settings: Streptococcus pyogenes; S.pyogenes C4003; read-out: Minimum Inhibitory Concentration (MIC)
Text: as §1

| SMILES | MIC [1] [mg/L] | MIC [2] [mg/L] | MIC [3] [mg/L] | MIC [4] [mg/L] | MIC [5] [mg/L] | MIC [6] [mg/L] | MIC [7] [mg/L] | MIC [8] [mg/L] | MIC [9] [mg/L] | MIC [10] [mg/L] | MIC [11] [mg/L] | MIC [12] [mg/L] | MIC [13] [mg/L] | MIC [14] [mg/L] | MIC [15] [mg/L] | MIC [16] [mg/L] | MIC [17] [mg/L] | MIC [18] [mg/L] | MIC [19] [mg/L] | MIC [20] [mg/L] | also measured |
| --- | --- | --- | --- | --- | --- | --- | --- | --- | --- | --- | --- | --- | --- | --- | --- | --- | --- | --- | --- | --- | --- |
| CO/N=C(\C(=O)N[C@@H]1C(=O)N2C(C(=O)O)=C(COC(C)=O)CS[C@H]12)c1csc(N)n1 [CTX, Cefotaxime, reference compound] | 0.1 (≈ 0.22 µM) | 0.002 (≈ 0.00439 µM) | 0.05 (≈ 0.11 µM) | 0.2 (≈ 0.439 µM) | 0.025 (≈ 0.0549 µM) | 3.13 (≈ 6.87 µM) | 0.004 (≈ 0.00878 µM) | 1.56 (≈ 3.43 µM) | 0.025 (≈ 0.0549 µM) | 0.1 (≈ 0.22 µM) | 1.56 (≈ 3.43 µM) | 25 (≈ 54.9 µM) | 0.025 (≈ 0.0549 µM) | 0.05 (≈ 0.11 µM) | > 100 | 25 (≈ 54.9 µM) | > 100 | 1.56 (≈ 3.43 µM) | 0.1 (≈ 0.22 µM) | 0.78 (≈ 1.71 µM) | MIC [21]: 0.025 mg/L (≈ 0.0549 µM); MIC [22]: 50 mg/L (≈ 110 µM); MIC [23]: 0.78 mg/L (≈ 1.71 µM); MIC [24]: 0.004 mg/L (≈ 0.00878 µM); MIC [25]: 0.004 mg/L (≈ 0.00878 µM) |
| CO/N=C(\C(=O)N[C@@H]1C(=O)N2C(C(=O)[O-])=C(C[n+]3ccc4c(c3)NC(=C[N+](=O)[O-])N4)CS[C@H]12)c1csc(N)n1 [Ex. 1] | 0.1 (≈ 0.174 µM) | 0.025 (≈ 0.0436 µM) | 0.1 (≈ 0.174 µM) | 0.2 (≈ 0.349 µM) | 0.025 (≈ 0.0436 µM) | 6.25 (≈ 10.9 µM) | 0.013 (≈ 0.0227 µM) | 0.78 (≈ 1.36 µM) | 0.05 (≈ 0.0872 µM) | 0.2 (≈ 0.349 µM) | 1.56 (≈ 2.72 µM) | 50 (≈ 87.2 µM) | 0.05 (≈ 0.0872 µM) | 0.1 (≈ 0.174 µM) | > 100 | 50 (≈ 87.2 µM) | > 100 | 1.56 (≈ 2.72 µM) | 0.1 (≈ 0.174 µM) | 6.25 (≈ 10.9 µM) | MIC [21]: 0.1 mg/L (≈ 0.174 µM); MIC [22]: > 100 mg/L; MIC [23]: 0.78 mg/L (≈ 1.36 µM); MIC [24]: 0.007 mg/L (≈ 0.0122 µM); MIC [25]: 0.007 mg/L (≈ 0.0122 µM) |
| CO/N=C(\C(=O)N[C@@H]1C(=O)N2C(C(=O)[O-])=C(C[n+]3ccc4c(c3)NC(=C[N+](=O)[O-])N4)CS[C@H]12)c1nsc(N)n1 [Ex. 2, 7-β-[(Z)-2-(5-Amino-1,2,4-thiadiazol-3-yl)-2-methoxyiminoacetamido]-3-[2-(1H,3H)-nitromethylen-yl-imidazo[4,5-c]-pyridiniummethyl]-3-cephem-4-carboxylate] | 0.2 (≈ 0.348 µM) | 0.05 (≈ 0.087 µM) | 0.1 (≈ 0.174 µM) | 0.2 (≈ 0.348 µM) | 0.05 (≈ 0.087 µM) | 6.25 (≈ 10.9 µM) | 0.025 (≈ 0.0435 µM) | 3.13 (≈ 5.45 µM) | 0.05 (≈ 0.087 µM) | 0.2 (≈ 0.348 µM) | 1.56 (≈ 2.72 µM) | > 100 | 0.05 (≈ 0.087 µM) | 0.2 (≈ 0.348 µM) | > 100 | 50 (≈ 87 µM) | > 100 | 3.13 (≈ 5.45 µM) | 0.1 (≈ 0.174 µM) | 12.5 (≈ 21.8 µM) | MIC [21]: 0.1 mg/L (≈ 0.174 µM); MIC [22]: > 100 mg/L; MIC [23]: 1.56 mg/L (≈ 2.72 µM); MIC [24]: 0.013 mg/L (≈ 0.0226 µM); MIC [25]: 0.007 mg/L (≈ 0.0122 µM) |
| CO/N=C(\C(=O)N[C@@H]1C(=O)N2C(C(=O)[O-])=C(C[n+]3ccc4[nH]c(=NC#N)[nH]c4c3)CS[C@H]12)c1csc(N)n1 [Ex. 3, 7-β-[(Z)-2-(2-Aminothiazol-4-yl)-2-methoxyiminoacetamido]-3-[2-(1H,3H)-cyanoimine-imidazo[4,5-c]pyridiniummethyl]-3-cephem-4-carboxylate] | 0.025 (≈ 0.0451 µM) | 0.007 (≈ 0.0126 µM) | 0.05 (≈ 0.0902 µM) | 0.05 (≈ 0.0902 µM) | 0.025 (≈ 0.0451 µM) | 6.25 (≈ 11.3 µM) | 0.007 (≈ 0.0126 µM) | 1.56 (≈ 2.81 µM) | 0.013 (≈ 0.0234 µM) | 0.025 (≈ 0.0451 µM) | 3.13 (≈ 5.64 µM) | 6.25 (≈ 11.3 µM) | 0.013 (≈ 0.0234 µM) | 0.025 (≈ 0.0451 µM) | > 100 | 12.5 (≈ 22.5 µM) | > 100 | 3.13 (≈ 5.64 µM) | 0.05 (≈ 0.0902 µM) | 6.25 (≈ 11.3 µM) | MIC [21]: 0.025 mg/L (≈ 0.0451 µM); MIC [22]: 12.5 mg/L (≈ 22.5 µM); MIC [23]: 0.78 mg/L (≈ 1.41 µM); MIC [24]: 0.004 mg/L (≈ 0.00721 µM); MIC [25]: 0.004 mg/L (≈ 0.00721 µM) |
| CO/N=C(\C(=O)N[C@@H]1C(=O)N2C(C(=O)[O-])=C(C[n+]3ccc4[nH]c(=NC#N)[nH]c4c3)CS[C@H]12)c1nsc(N)n1 [Ex. 4, 7-β-[(Z)-2-(5-Amino-1,2,4-thiadiazol-3-yl)-2-methoxyiminoacetamido]-3-[2-(1H,3H)-cyanoimine-imidazo[4,5-c]pyridiniummethyl]-3-cephem-4-carboxylate] | 0.05 (≈ 0.09 µM) | 0.013 (≈ 0.0234 µM) | 0.1 (≈ 0.18 µM) | 0.05 (≈ 0.09 µM) | 0.025 (≈ 0.045 µM) | 6.25 (≈ 11.2 µM) | 0.013 (≈ 0.0234 µM) | 3.13 (≈ 5.63 µM) | 0.05 (≈ 0.09 µM) | 0.05 (≈ 0.09 µM) | 3.13 (≈ 5.63 µM) | 25 (≈ 45 µM) | 0.05 (≈ 0.09 µM) | 0.05 (≈ 0.09 µM) | > 100 | 12.5 (≈ 22.5 µM) | > 100 | 3.13 (≈ 5.63 µM) | 0.1 (≈ 0.18 µM) | 12.5 (≈ 22.5 µM) | MIC [21]: 0.025 mg/L (≈ 0.045 µM); MIC [22]: 12.5 mg/L (≈ 22.5 µM); MIC [23]: 1.56 mg/L (≈ 2.81 µM); MIC [24]: 0.007 mg/L (≈ 0.0126 µM); MIC [25]: 0.007 mg/L (≈ 0.0126 µM) |
